In patent US20150025120A1, “PYRAZOLE-ALCOHOL COMPOUNDS AND PHARMACEUTICAL USE THEREOF” (JAPAN TOBACCO INC., priority 2013, published 2015):

Legend:
human PDHK2 (hPDHK2) = target: T1, human PDHK2 (hPDHK2) (Homo sapiens, UniProt Q15119); assay: Inhibitory action of PDHK2 activity in vitro (residual PDH activity after kinase reaction); type: biochemical
T1 construct: made in house; host or cells: Escherichia coli BL21(DE3), pET17b
Method: The inhibitory action of PDHK activity was assessed indirectly by measuring the residual PDH activity after kinase reaction in the presence of a test compound.
In the case of human PDHK2 (hPDHK2, Genbank Accession No. BC040478.1), modified hPDHK2 cDNA wherein FLAG-Tag sequence was added to the N terminus of hPDHK2 cDNA clone (pReceiver-M01/PDK2-GeneCopoeia) was prepared by PCR and cloned into a vector (pET17b-Novagen). The recombinant construct was transformed into Escherichia coli (DH5α-TOYOBO). The recombinant clones were identified, and plasmid DNA was isolated and subjected to the DNA sequence analysis. One clone which had the expected nucleic acid sequence was selected for expression work.
For expression of hPDHK2 activity, Escherichia coli strain BL21(DE3) cells (Novagen) were transformed with the pET17b vector containing modified hPDHK2 cDNA. The Escherichia coli were grown to an optical density 0.6 ([…]) at 30° C. Protein expression was induced by the addition of 500 μmol/L isopropyl-β-thiogalactopyranoside. The Escherichia coli were cultured at 30° C. for 5 hr and harvested by centrifugation. Resuspension of the Escherichia coli paste was disrupted by a microfluidizer. FLAG-Tagged protein was purified using FLAG affinity gel. The gel was washed with 20 mmol/L HEPES-NaOH, 500 mmol/L sodium chloride, 1% ethylene glycol, and 0.1% Pluronic F-68 (pH 8.0), and the binding protein was eluted with 20 mmol/L HEPES-NaOH, 100 μg/mL FLAG peptide, 500 mmol/L sodium chloride, 1% ethylene glycol, and 0.1% Pluronic F-68 (pH 8.0). The eluted fractions containing FLAG-Tagged protein were pooled, dialyzed against 20 mmol/L HEPES-NaOH, 150 mmol/L sodium chloride, 0.5 mmol/L EDTA, 1% ethylene glycol, and 0.1% Pluronic F-68 (pH 8.0), and preserved at −80° C.
0.05 U/mL PDH and 0.8 μg/mL hPDHK2 were mixed in a buffer (50 mmol/L 3-morpholinopropanesulfonic acid (pH 7.0), 20 mmol/L dipotassium hydrogen phosphate, 60 mmol/L potassium chloride, 2 mmol/L magnesium chloride, 0.4 mmol/L EDTA, and 0.2% Pluronic F-68, 2 mmol/L dithiothreitol), and the mixture was incubated at 4° C. overnight to obtain a PDH/hPDHK2 complex. The test compounds were diluted with DMSO. […] DMSO (1.5 μL) was added to control wells instead of the test compound. […] The mixture was incubated at room temperature for 90 min, and the residual PDH activity was measured. The absorbance at 340 nm before and after PDH reaction was measured using a microplate reader to detect NADH produced by the PDH reaction. The hPDHK2 inhibition rate (%) of the test compound was calculated from the formula [{(PDH activity of test compound−PDH activity of control)/PDH activity of blank−PDH activity of control)}×100].

tissue PDH activity = assay: Ex vivo PDH activation assay (liver and epididymal adipose tissue after oral administration); type: in vivo, Sprague-Dawley rats; details: 3 mg/kg, rat, mean ± standard deviation
Method: The action of test compound on tissue PDH activity was evaluated. NADH production was detected via p-iodonitrotetrazolium violet (INT)-coupled system to measure PDH activity.
Normal male Sprague-Dawley rats were randomly allocated to the vehicle group and the test compound groups. The vehicle (0.5% aqueous methylcellulose solution, 5 mL/kg) or the test compound was orally administered to the rats. At 5 or 20 hr after administration, the rats were anesthetized with an intraperitoneal injection of sodium pentobarbital (60 mg/kg), and liver slices and epididymal adipose tissues were collected.
To the liver slices were rapidly added 9 volumes of ice-cold homogenization buffer (0.25 mol/L sucrose, 5 mmol/L tris(hydroxymethyl)aminomethane hydrochloride (pH 7.5), 2 mmol/L EDTA), and the mixtures were homogenized using a Polytron homogenizer. The homogenates were centrifuged at 600×g, 4° C. for 10 min to obtain the supernatant. The supernatants (1 mL) were centrifuged at 16,000×g, 4° C. for 10 min to collect the precipitates. The precipitates were washed by resuspension in the homogenization buffer (1 mL) and centrifuged in the same manner. The precipitates were frozen with liquid nitrogen and stored at −80° C. as the liver mitochondrial fraction.
To the adipose tissues were rapidly added 3 volumes of an ice-cold homogenization buffer, and the mixtures were homogenized using a Polytron homogenizer. The homogenates were centrifuged at 600×g, 4° C. for 10 min to obtain the supernatant. The supernatants were centrifuged at 16,000×g, 4° C. for 10 min to collect the precipitates. The precipitates were washed by resuspension in the homogenization buffer (1 mL) and centrifuged in the same manner. The precipitates were frozen with liquid nitrogen and stored at −80° C. as the adipose tissue mitochondrial fraction.
The mitochondrial fractions were thawed and suspended with the sample buffer (0.25 mol/L sucrose, 20 mmol/L tris(hydroxymethyl)aminomethane hydrochloride (pH 7.5), 50 mmol/L potassium chloride, and 1 mL/L 4-(1,1,3,3-tetramethylbutyl)phenyl-polyethylene glycol (Triton X-100)). Active PDH activity (PDHa activity) and total PDH activity (PDHt activity) were measured to evaluate the PDH activity. For the measurement of the PDHt activity, equal amounts of the mitochondrial suspension and the activation buffer (0.25 mol/L sucrose, 20 mmol/L tris(hydroxymethyl)aminomethane hydrochloride (pH 7.5), 50 mmol/L potassium chloride, 1 mL/L Triton X-100, 4 mmol/L calcium chloride, 40 mmol/L magnesium chloride, 10 mmol/L sodium dichloroacetate) were mixed, and the mixtures were incubated at 37° C. for 10 min. Forty microliters of the mitochondrial suspensions diluted with a sample buffer were added to a 96-well microplate for activity measurement and blank measurement. Then 180 μL of the reaction mixture (0.056 mmol/L potassium phosphate buffer (pH 7.5), 5.6 mmol/L DL-carnitine, 2.8 mmol/L NAD, 0.22 mmol/L thiamin pyrophosphate, 0.11 mmol/L Coenzyme A, 1.1 mL/L Triton X-100, 1.1 mmol/L magnesium chloride, 1.1 g/L bovine serum albumin, 0.67 mmol/L INT, 7.2 μmol/L phenazine methosulfate, 28 mmol/L sodium oxamate) was added to each well, and then 20 μL of 50 mmol/L sodium pyruvate for activity measurement or water for blank measurement were added. The mixtures were incubated at room temperature under shading. The absorbances at 500-750 nm, which were attributable to reduction of INT, the final electron acceptor, were measured using a microplate reader over time and the changes in the absorbance were calculated. The PDH activity was calculated by subtraction of the change in absorbance of the blank well from that of the activity measurement well. The percentage of the PDHa activity to the PDHt activity was calculated and taken as an index of the PDH activation.

[1] = Metabolic stability test in liver microsome (human); type: in vitro ADME; details: 5 μM test compound
Method: Human liver microsome (manufactured by Xenotech, H0620, final concentration (after dilution), 0.2 mg protein/mL) was suspended in 100 mM potassium phosphate buffer (pH 7.4, containing β-nicotinamide adenine dinucleotide phosphate: 1.3 mM, D-glucose-6-phosphate: 3.3 mM, magnesium chloride: 3.3 mM, glucose-6-phosphate dehydrogenase: 0.45 U/mL), and further mixed with a test compound dissolved in MeCN/DMSO (95/5) (final concentration 5 μM). The mixture was incubated at 37° C. for 10 min and 60 min, acetonitrile containing formic acid (final concentration 0.1%) was added, and the mixture was centrifuged. The test compound (unmodified) in the supernatant was measured by high performance liquid chromatography/mass spectrometry (LC/MS) (manufactured by Waters, LC: Acquity UPLC, MS:SQ Detector or TQ Detector). The residual ratio (%) was calculated from the obtained measurement value.

[2] = Metabolic stability test in liver microsome (rat); type: in vitro ADME

Compound: CC(C)(O)CCOc1cc(-c2cnn(CC(C)(C)O)c2)c2c(c1)[C@@](O)(C(F)(F)F)c1ccccc1-2 [compound (3), (9R)-2-(3-hydroxy-3-methylbutoxy)-4-[1-(2-hydroxy-2-methylpropyl)-1H-pyrazol-4-yl]-9-(trifluoromethyl)-9H-fluoren-9-ol]
- IC50 (human PDHK2 (hPDHK2)): 4.6 nM
- PDHa activity (% PDHt activity) (tissue PDH activity; adipose tissue, 5 hr after oral administration): 58 ± 7 % PDHt activity
- PDHa activity (% PDHt activity) (tissue PDH activity; adipose tissue, 20 hr after oral administration): 40 ± 3 % PDHt activity
- PDHa activity (% PDHt activity) (tissue PDH activity; liver, 5 hr after oral administration): 51 ± 13 % PDHt activity
- PDHa activity (% PDHt activity) (tissue PDH activity; liver, 20 hr after oral administration): 31 ± 12 % PDHt activity
- stability in liver microsome (residual ratio %) ([1]; 10 min): 96.0%
- stability in liver microsome (residual ratio %) ([1]; 60 min): 85.3%
- stability in liver microsome (residual ratio %) ([2]; 10 min): 98.2%
- stability in liver microsome (residual ratio %) ([2]; 60 min): 99.7%
